# In the supplement of paper PMC10307832:
# What was measured:
# Assay in all cases: relative viability (nuclei count vs DMSO), 5 days (fraction); higher = more cells survive
# [1] = compound: CC1(C)CCC(CN2CCN(c3ccc(C(=O)NS(=O)(=O)c4ccc(NCC5CCOCC5)c([N+](=O)[O-])c4)c(Oc4cnc5[nH]ccc5c4)c3)CC2)=C(c2ccc(Cl)cc2)C1 [Venetoclax] + C[C@]1(O)C[C@@H](c2nc(-c3ccc4ccc(-c5ccccc5)nc4c3)c3c(N)nccn32)C1 [Linsitinib] (partner 1 µM)
# Method in brief: (§1)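 Lung cancer cell lines were pin-tool dosed in 1536-well plates on the day after seeding, with either a lone drug or a fixed anchor-drug dose plus five library-drug doses (not always all listed) in √10 steps. Nuclei were counted on 4× images after 5 days. Relative viability is the ratio of treated-well to vehicle-well nuclei counts, with each value a median of duplicate plates.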
# [2] = compound: CC1(C)CCC(CN2CCN(c3ccc(C(=O)NS(=O)(=O)c4ccc(NCC5CCOCC5)c([N+](=O)[O-])c4)c(Oc4cnc5[nH]ccc5c4)c3)CC2)=C(c2ccc(Cl)cc2)C1 [Venetoclax] + Cc1cc(Nc2cc(N3CCN(C)CC3)nc(Sc3ccc(NC(=O)C4CC4)cc3)n2)n[nH]1 [Tozasertib] (partner 0.1 µM)
# Method in brief: as §1
# [3] = compound: Cn1cnc2c(F)c(Nc3ccc(Br)cc3Cl)c(C(=O)NOCCO)cc21 [Selumetinib] + COc1cc2c(Oc3ccc(NC(=O)C4(C(=O)Nc5ccc(F)cc5)CC4)cc3F)ccnc2cc1OCCCN1CCOCC1 [Foretinib] (partner 0.25 µM)
# Method in brief: as §1
# [4] = compound: Cn1cnc2c(F)c(Nc3ccc(Br)cc3Cl)c(C(=O)NOCCO)cc21 [Selumetinib] + Cc1nc(NC(=O)N2CCC[C@H]2C(N)=O)sc1-c1ccnc(C(C)(C)C(F)(F)F)c1 [Alpelisib] (partner 2 µM)
# Method in brief: as §1
cell line,measurement,setting,value
UMC-11,relative viability,[1]; first compound 0.01 µM,1
same,relative viability,[1]; first compound 0.03162 µM,1.01
same,relative viability,[1]; first compound 0.1 µM,0.912
same,relative viability,[1]; first compound 0.3162 µM,0.932
same,relative viability,[1]; first compound 1 µM,0.959
same,relative viability,[2]; first compound 0.01 µM,0.205
same,relative viability,[2]; first compound 0.03162 µM,0.213
same,relative viability,[2]; first compound 0.1 µM,0.2
same,relative viability,[2]; first compound 0.3162 µM,0.191
same,relative viability,[2]; first compound 1 µM,0.187
same,relative viability,[3]; first compound 0.02 µM,1.05
same,relative viability,[3]; first compound 0.06325 µM,1.11
same,relative viability,[3]; first compound 0.2 µM,1.05
same,relative viability,[3]; first compound 0.6325 µM,1.04
same,relative viability,[4]; first compound 0.02 µM,0.97
same,relative viability,[4]; first compound 0.06325 µM,1.1
same,relative viability,[4]; first compound 0.2 µM,1.01
same,relative viability,[4]; first compound 0.6325 µM,0.986
